Biological target: mTOR/GbL/Raptor (mTORC1) (Homo sapiens, UniProt P42345)
Test: mTOR/GbL/Raptor (mTORC1) ELISA assay
Assay type: biochemical
Settings: phosphorylation of 4E-BP1; 0.2 nM mTORC1, 10 μM ATP; read-out: IC50 in this assay (mTORC1 ELISA)
Procedure: The measurement of mTORC1 enzyme activity was performed in an ELISA assay format following the phosphorylation of 4E-BP1 protein. All experiments were performed in the 384-well format. Generally, 0.5 μL DMSO containing varying concentrations of the test Compound was mixed with 15 μL enzyme solution. Kinase reactions were initiated with the addition of 15 μL of substrates-containing solution. The assay conditions were as follows; 0.2 nM mTORC1, 10 μM ATP and 50 nM NHis-tagged 4E-BP1 in 20 mM Hepes, pH 7.2, 1 mM DTT, 50 mM NaCl, 10 mM MnCl2, 0.02 mg/mL BSA, 0.01% CHAPS, 50 mM β-glycerophosphate. Following an incubation of 120 minutes at ambient temperature, 20 μL of the reaction volume was transferred to a Ni-Chelate-coated 384-well plate. The binding step of the 4E-BP1 protein proceeded for 60 minutes, followed by washing 4 times each with 50 μL of Tris-buffered saline solution (TBS). Anti-phospho-4E-BP1 rabbit-IgG (20 μL, 1:5000) in 5% BSA-TBST (0.2% Tween-20 in TBS) was added and further incubated for 60 minutes. Incubation with a secondary HRP-tagged anti-IgG was similarly performed after washing off the primary antibody (4 washes of 50 μL). Following the final wash step with TBST, 20 μL of SuperSignal ELISA Femto (Pierce Biotechnology) was added and the luminescence measured using an EnVision plate reader.

Compound | IC50 [nM]
Cc1nc2cc(-c3ccc4c(c3)CN(c3nc(CN(C)C)nc(C)c3C(C)C)CCO4)cnc2[nH]1 [Example 614, N,N-dimethyl-1-{4-methyl-5-(1-methylethyl)-6-[7-(2-methyl-3H-imidazo[4,5-b]pyridin-6-yl)-2,3-dihydro-1,4-benzoxazepin-4(5H)-yl]pyrimidin-2-yl}methanamine] | 10 to 50
Cc1nc2ncc(-c3ccc4c(c3)CN(c3ncnc5c3CCC(C(F)(F)F)C5)CCO4)cc2[nH]1 (stereo not shown) [Example 566, 7-(2-methyl-1H-imidazo[4,5-b]pyridin-6-yl)-4-[7-(trifluoromethyl)-5,6,7,8-tetrahydroquinazolin-4-yl]-2,3,4,5-tetrahydro-1,4-benzoxazepine] | 10 to 50
Cc1nc2ccc(-c3ccc4c(c3)CN(c3nc(CNC5CCC5)nc5c3CC(C)(C)CC5)CCO4)cc2[nH]1 [Example 587, N-({6,6-dimethyl-4-[7-(2-methyl-1H-benzimidazol-6-yl)-2,3-dihydro-1,4-benzoxazepin-4(5H)-yl]-5,6,7,8-tetrahydroquinazolin-2-yl}methyl)cyclobutanamine] | 10 to 50
CC1(C)CCc2ncnc(N3CCOc4ccc(-c5cnc6[nH]ncc6c5)cc4C3)c2C1 [Example 263, 4-(6,6-dimethyl-5,6,7,8-tetrahydroquinazolin-4-yl)-7-(1H-pyrazolo[3,4-b]pyridin-5-yl)-2,3,4,5-tetrahydro-1,4-benzoxazepine] | 50 to 250
Cc1nc2cc(-c3ccc4c(c3)CN(c3nc(CN(C)C)nc(C)c3-c3ccccc3)CCO4)ccc2[nH]1 [Example 681, N,N-dimethyl-1-{4-methyl-6-[7-(2-methyl-1H-benzimidazol-5-yl)-2,3-dihydro-1,4-benzoxazepin-4(5H)-yl]-5-phenylpyrimidin-2-yl}methanamine] | 50 to 250
CCNc1nc2ccc(-c3ccc4c(c3)CN(c3ccncn3)CCO4)cc2[nH]1 [Example 277, N-ethyl-6-(4-pyrimidin-4-yl-2,3,4,5-tetrahydro-1,4-benzoxazepin-7-yl)-1H-benzimidazol-2-amine] | 1000 to 2000
Cc1ncnc(N2CCOc3ccc(-c4cc5[nH]c(N)nc5cn4)cc3C2)c1Cc1ccc(F)cc1 [Example 216, 6-(4-{5-[(4-fluorophenyl)merthyl]-6-methylpyrimidin-4-yl}-2,3,4,5-tetrahydro-1,4-benzoxazepin-7-yl)-1H-imidazo[4,5-c]pyridin-2-amine] | 10 to 50
COc1c(OCC2CC2)ccc2c(N3CCOc4ccc(-c5ccc6nc(C)[nH]c6c5)cc4C3)ncnc12 [Example 168, 4-{7-[(cyclopropylmethyl)oxy]-8-(methyloxy)quinazolin-4-yl}-7-(2-methyl-1H-benzimidazol-6-yl)-2,3,4,5-tetrahydro-1,4-benzoxazepine] | 250 to 1000
CCSc1nc2c(c(N3CCOc4ccc(-c5ccc6nc(C)[nH]c6c5)cc4C3)n1)CCC2 [Example 54, 4-[2-(ethylthio)-6,7-dihydro-5H-cyclopenta[d]pyrimidin-4-yl]-7-(2-methyl-1H-benzimidazol-6-yl)-2,3,4,5-tetrahydro-1,4-benzoxazepine] | 250 to 1000
Cc1nc2c(c(N3CCOc4ccc(-c5cnc6nc(C)[nH]c6c5)cc4C3)n1)CC(C)CC2 (stereo not shown) [Example 460, 4-(2,6-dimethyl-5,6,7,8-tetrahydroquinazolin-4-yl)-7-(2-methyl-1H-imidazo[4,5-b]pyridin-6-yl)-2,3,4,5-tetrahydro-1,4-benzoxazepine] | 10 to 50
Cc1nc2ccc(-c3ccc4c(c3)CN(c3nc(CN5CC[C@@H](F)C5)nc5c3CC(C)(C)CC5)CCO4)cc2[nH]1 [Example 461] | 50 to 250
Nc1ccc(-c2ccc3c(c2)CN(c2ccnc4ccccc24)CCO3)cn1 [Example 226, 5-(4-quinolin-4-yl-2,3,4,5-tetrahydro-1,4-benzoxazepin-7-yl)pyridin-2-amine] | 10 to 50
CCCOc1ccc2ncnc(N3CCOc4ccc(-c5ccc6nc(C)[nH]c6c5)cc4C3)c2c1 [Example 162, 7-(2-methyl-1H-benzimidazol-6-yl)-4-[6-(propyloxy)quinazolin-4-yl]-2,3,4,5-tetrahydro-1,4-benzoxazepine] | 250 to 1000
Cc1nc2cc(-c3ccc4c(c3)CN(c3nc(CN(C)C)nc(C)c3CC(C)C)CCO4)ccc2[nH]1 [Example 655, N,N-dimethyl-1-{4-methyl-6-[7-(2-methyl-1H-benzimidazol-5-yl)-2,3-dihydro-1,4-benzoxazepin-4(5H)-yl]-5-(2-methylpropyl)pyrimidin-2-yl}methanamine] | 250 to 1000
Cc1nc2ccc(-c3ccc4c(c3)CN(c3nc(CN(C)C)nc(C)c3C)CCO4)cc2[nH]1 [Example 672, 1-{4,5-dimethyl-6-[7-(2-methyl-1H-benzimidazol-6-yl)-2,3-dihydro-1,4-benzoxazepin-4(5H)-yl]pyrimidin-2-yl}-N,N-dimethylmethanamine] | ≥ 2000
Cc1nc2ncc(-c3ccc4c(c3)CN(c3ncnc5c3CC(C)(C)C=C5)CCO4)cc2[nH]1 [Example 478, 4-(6,6-dimethyl-5,6-dihydroquinazolin-4-yl)-7-(2-methyl-1H-imidazo[4,5-b]pyridin-6-yl)-2,3,4,5-tetrahydro-1,4-benzoxazepine] | ≤ 10
Cc1nc(CN(C)C)nc(N2CCOc3ccc(-c4cnc5sc(N)nc5c4)cc3C2)c1Cl [Example 678, 6-(4-{5-chloro-2-[(dimethylamino)methyl]-6-methylpyrimidin-4-yl}-2,3,4,5-tetrahydro-1,4-benzoxazepin-7-yl)[1,3]thiazolo[5,4-b]pyridin-2-amine] | 250 to 1000
COCCNCc1nc2c(c(N3CCOc4ccc(-c5cnc6nc(C)[nH]c6c5)cc4C3)n1)CC(C)(C)CC2 [Example 590, N-({6,6-dimethyl-4-[7-(2-methyl-1H-imidazo[4,5-b]pyridin-6-yl)-2,3-dihydro-1,4-benzoxazepin-4(5H)-yl]-5,6,7,8-tetrahydroquinazolin-2-yl}methyl)-2-(methyloxy)ethanamine] | ≤ 10
Cc1nc2ccc(-c3ccc4c(c3)CN(c3ncnc(C)c3Cc3ccc(C(F)(F)F)cc3)CCO4)cc2[nH]1 [Example 90, 7-(2-methyl-1H-benzimidazol-6-yl)-4-(6-methyl-5-{[4-(trifluoromethyl)phenyl]methyl}pyrimidin-4-yl)-2,3,4,5-tetrahydro-1,4-benzoxazepine] | 10 to 50
CC1(C)CCc2ncnc(N3CCOc4ccc(-c5cnc(N)c(S(=O)(=O)NC[C@H]6C[C@H]7CNC[C@H]7C6)c5)cc4C3)c2C1 [Example 384, 2-amino-5-[4-(6,6-dimethyl-5,6,7,8-tetrahydroquinazolin-4-yl)-2,3,4,5-tetrahydro-1,4-benzoxazepin-7-yl]-N-[(3aR,5r,6aS)-octahydrocyclopenta[c]pyrrol-5-ylmethyl]pyridine-3-sulfonamide] | 50 to 250
CC1(C)CCc2ncnc(N3CCOc4ccc(-c5cnc(Cl)c(NS(C)(=O)=O)c5)cc4C3)c2C1 [Example 623, N-{2-chloro-5-[4-(6,6-dimethyl-5,6,7,8-tetrahydroquinazolin-4-yl)-2,3,4,5-tetrahydro-1,4-benzoxazepin-7-yl]pyridin-3-yl}methanesulfonamide] | 10 to 50
CSc1nc2c(c(N3CCOc4ccc(-c5ccc6nc(C)[nH]c6c5)cc4C3)n1)CCC2 [Example 49, 7-(2-methyl-1H-benzimidazol-6-yl)-4-[2-(methylthio)-6,7-dihydro-5H-cyclopenta[d]pyrimidin-4-yl]-2,3,4,5-tetrahydro-1,4-benzoxazepine] | 50 to 250

Source: US8648066B2 (Exelixis, Inc., priority 2009, dated 2014)
